# Source: patent publication US9475841B2, “Melanoma antigen peptide and uses thereof” (INSERM (INSTITUT NATIONAL DE LA SANTE ET DE LA RECHERCHE …, priority 2012, dated 2016)
# Experiments:
# [1] = system: MELOE-1 specific CD4+ T cells; assay: MELOE-1 CD4+ T cell responses in PBMC from healthy donors: restimulation of microcultures with overlapping peptides, CD4/TNF-α staining; assay type: cell-based, human; details: for Microcultures containing MELOE-1 specific CD4+ T cells (TNF-α production): positive/tested microcultures
# Experimental: PBMC from healthy donors were stimulated with 10 μM of MELOE-1. After 14 days, the presence of CD4 T cells specific for the different regions of MELOE-1 was assessed by restimulating cells with MELOE-12-21, MELOE-111-30, MELOE-118-37 and MELOE-126-46 peptides, followed by CD4/TNF-α double staining and flow cytometry analysis. Between brackets is indicated the mean % of TNF-α producing CD4 T cells, in positive microcultures. NA: not available.
# (§1) PBMC from healthy donors or melanoma patients (2·10^5 cells/well) were cultured for 14 days with 10 μM of MELOE-1 whole antigen (46 amino acids) in RPMI medium supplemented with 8% HS, 50 IU/ml of rIL-2 (Chiron, France) and L-Glutamin, in 96-well multiplates. Microcultures were then restimulated individually with each overlapping peptide (MELOE-12-21, MELOE-111-30, MELOE-118-37, MELOE-12646 or MELOE-122-46 for melanoma patients) in the presence of 10 μg/mL brefeldin A for 5 hours and the percentage of CD4^+ specific T cells was assessed by TNF-α, IFN-γ or IL-4 intracellular staining. A negative control without peptide was included in all experiments.
# Our purpose was to look for the existence of class II helper epitopes all along MELOE-1 sequence (SEQ ID NO:20), in order to document the immunogenicity of the different regions of this melanoma antigen. We stimulated 2·10^7 PBMC from seven healthy donors with MELOE-1 whole antigen and tested, after a 14-day culture period the presence of CD4 T cells specific for each region of the protein. Microcultures were screened for TNFα production by CD4+ T cells, after restimulation with four MELOE-1 derived overlapping peptides (Table I), in an autopresentation assay. […] On the contrary, the central region 18-37, containing an already described DR11-restricted epitope (24-37) located just at the end of this 20-mer peptide (Rogel et al., 2011), induced specific responses in microcultures deriving from only 2/7 donors (HD9 and HD17, both expressing the DR11 element). In these two donors, we detected 6 and 7% of positive microcultures, containing between 0.6 to 3.7% of TNFα producing CD4 T cells.
# [2] = system: MELOE-1 specific CD4 T cells; assay: MELOE-1 CD4+ T cell responses in PBMC from melanoma patients: restimulation with peptides, CD4/IFN-γ (Th1) and CD4/IL4 (Th2) staining; assay type: cell-based, human; details: for mean % of cytokine producing CD4 T cells, in positive microcultures (IFN-γ): Th1; for Th1 responses (IFN-γ positive microcultures) / Th2 responses (IL4 positive microcultures): positive/tested microcultures; for mean % of cytokine producing CD4 T cells, in positive microcultures (IL4): Th2
# Experimental: PBMC from melanoma patients were stimulated with 10 μM of MELOE-1. After 14 days, the presence of CD4 T cells specific for the different regions of MELOE-1 was assessed by restimulating cells with MELOE-12-21, MELOE-111-30 and MELOE-122-46 peptides, followed by CD4/IFN-γ double staining for the detection of Th1 responses, and by CD4/IL4 double staining for Th2 responses. Between brackets is indicated the mean % of cytokine producing CD4 T cells, in positive microcultures.
# as §1
# In order to confirm the immunogenicity of each MELOE-1 regions in melanoma patients, we stimulated melanoma patients PBMC with the MELOE-1 whole protein, and tested the reactivity of stimulated lymphocytes towards the three most immunogenic regions: 2-21, 11-30, and 22-46. For this study, instead of challenging microcultures with the 18-37 peptide, that appeared poorly immunogenic, we extended the C-terminus region from 26-46 to 22-46, in order to also detect responses to our previously described HLA-DR11-restricted epitope (24-37). […] We tested the induction of CD4 specific responses from MELOE-1 stimulated PBMC of […] melanoma patients. We documented CD4 responses specific for the central region of MELOE-1 (11-30) for 7/9 patients, whereas responses specific for MELOE-12-21 and MELOE-122-46 were respectively detected in 4/9 and 5/9 patients (Table III). These responses were mainly Th1 responses (IFN-g production) while less frequent Th2 responses specific for the three regions of MELOE-1 were detected in 3/9 patients for MELOE-12-21, 2/9 patients for MELOE-111-30 and 5/9 patients for MELOE-122-46 (Table III). […] Concerning Th2 responses, much less frequent, the C-term region appeared to induce more frequently the growth of IL-4 producing CD4 T cells than the two other regions (FIG. 2A). […] In summary, stimulation of patient's PBMC with MELOE-1 induced Th1 responses specific for diverse epitopes located all along the protein sequence, and among the different regions, the central region (11-30) and the C-term region (22-46) appeared to be especially immunogenic in term of frequency of responses.
sequence,measurement,setting,value
SCVGYPDEATSREQFLPSEG (SCVGYPDEATSREQFLPSEC) [MELOE-12-21],"mean % of TNF-α producing CD4 T cells, in positive microcultures",[1]; donor HD9,(1.4% ± 0.6)
same,Microcultures containing MELOE-1 specific CD4+ T cells (TNF-α production),"[1]; donor HD9 (DPβ1*0902/1501, DQβ1*0301, DRβ1*1104/1201)",9/96
same,"mean % of TNF-α producing CD4 T cells, in positive microcultures",[1]; donor HD17,(3.2% ± 1.9)
same,Microcultures containing MELOE-1 specific CD4+ T cells (TNF-α production),"[1]; donor HD17 (DPβ1*0401/0301, DQβ1*0301/0603, DRβ1*1101/1301)",6/96
same,"mean % of TNF-α producing CD4 T cells, in positive microcultures",[1]; donor HD22,(1%)
same,Microcultures containing MELOE-1 specific CD4+ T cells (TNF-α production),"[1]; donor HD22 (DPβ1*0401/1101, DQβ1*0202, DRβ1*0701)",1/96
same,"mean % of TNF-α producing CD4 T cells, in positive microcultures",[1]; donor HD24,(1.3% ± 0.8)
same,Microcultures containing MELOE-1 specific CD4+ T cells (TNF-α production),"[1]; donor HD24 (DPβ1*0401/0101, DQβ1*0501/0602, DRβ1*0101/1501)",3/96
same,"mean % of TNF-α producing CD4 T cells, in positive microcultures",[1]; donor HD25,(0.6% ± 0.1)
same,Microcultures containing MELOE-1 specific CD4+ T cells (TNF-α production),"[1]; donor HD25 (DPβ1*0401/0402, DQβ1*0201, DRβ1*0301)",3/96
same,Microcultures containing MELOE-1 specific CD4+ T cells (TNF-α production),"[1]; donor HD27 (DQβ1*501/0201, DRβ1*0101/0301)",0/96
same,"mean % of TNF-α producing CD4 T cells, in positive microcultures",[1]; donor HD28,(2.7% ± 1.2)
same,Microcultures containing MELOE-1 specific CD4+ T cells (TNF-α production),[1]; donor HD28 (DRβ1*0301),30/48
same,% of positive microcultures,[1]; healthy donor HD28,62%
same,donors in which CD4 responses against the region were detected,[1]; seven healthy donors,6/7
same,"Th1 responses, % of tested microcultures","[2]; 576 tested microcultures from melanoma patients, IFN-γ",3.3%
same,patients in which Th2 responses were detected,"[2]; melanoma patients, IL4",3/9
same,patients in which CD4 responses specific for the region were detected,"[2]; melanoma patients, Table III, Th1 (IFN-γ)",4/9
same,"mean % of cytokine producing CD4 T cells, in positive microcultures (IFN-γ)",[2]; patient Pt ≠ 1,(0.7%)
same,Th1 responses (IFN-γ positive microcultures),[2]; patient Pt ≠ 1,1/48
same,Th2 responses (IL4 positive microcultures),[2]; patient Pt ≠ 1,0/48
same,"mean % of cytokine producing CD4 T cells, in positive microcultures (IFN-γ)",[2]; patient Pt ≠ 2,(0.8% ± 0.2)
same,Th1 responses (IFN-γ positive microcultures),[2]; patient Pt ≠ 2,4/96
same,Th2 responses (IL4 positive microcultures),[2]; patient Pt ≠ 2,0/96
same,Th1 responses (IFN-γ positive microcultures),"[2]; patient Pt ≠ 3 (DPβ1*0201/2001, DQβ1*0303/0501, DRβ1*0101/0701)",10/96
same,"mean % of cytokine producing CD4 T cells, in positive microcultures (IFN-γ)",[2]; patient Pt ≠ 3,(1.7% ± 2.9)
same,Th2 responses (IL4 positive microcultures),[2]; patient Pt ≠ 3,0/96
same,"mean % of cytokine producing CD4 T cells, in positive microcultures (IL4)",[2]; patient Pt ≠ 4,(0.7%)
same,Th1 responses (IFN-γ positive microcultures),[2]; patient Pt ≠ 4,0/48
same,Th2 responses (IL4 positive microcultures),[2]; patient Pt ≠ 4,1/48
same,"mean % of cytokine producing CD4 T cells, in positive microcultures (IFN-γ)",[2]; patient Pt ≠ 5,(0.6%)
same,"mean % of cytokine producing CD4 T cells, in positive microcultures (IL4)",[2]; patient Pt ≠ 5,(0.7% ± 0.1)
same,Th1 responses (IFN-γ positive microcultures),[2]; patient Pt ≠ 5,1/48
same,Th2 responses (IL4 positive microcultures),[2]; patient Pt ≠ 5,2/48
same,Th1 responses (IFN-γ positive microcultures),[2]; patient Pt ≠ 6,0/48
same,Th2 responses (IL4 positive microcultures),[2]; patient Pt ≠ 6,0/48
same,Th1 responses (IFN-γ positive microcultures),[2]; patient Pt ≠ 7,0/48
same,Th2 responses (IL4 positive microcultures),[2]; patient Pt ≠ 7,0/48
same,Th1 responses (IFN-γ positive microcultures),[2]; patient Pt ≠ 8,0/48
same,Th2 responses (IL4 positive microcultures),[2]; patient Pt ≠ 8,0/48
same,"mean % of cytokine producing CD4 T cells, in positive microcultures (IL4)",[2]; patient Pt ≠ 9,(0.6%)
same,Th1 responses (IFN-γ positive microcultures),[2]; patient Pt ≠ 9,0/48
same,Th2 responses (IL4 positive microcultures),[2]; patient Pt ≠ 9,1/48
